Test results from article PMC9667776 (RSC Medicinal Chemistry, 2022).

What was measured:
2-epimerase = type: binding, B. anthracis
PAK4 = PAK4 (Homo sapiens, UniProt O96013, L310A); type: binding
Sequence of PAK4 (O96013 300-591 L310A limits assumed): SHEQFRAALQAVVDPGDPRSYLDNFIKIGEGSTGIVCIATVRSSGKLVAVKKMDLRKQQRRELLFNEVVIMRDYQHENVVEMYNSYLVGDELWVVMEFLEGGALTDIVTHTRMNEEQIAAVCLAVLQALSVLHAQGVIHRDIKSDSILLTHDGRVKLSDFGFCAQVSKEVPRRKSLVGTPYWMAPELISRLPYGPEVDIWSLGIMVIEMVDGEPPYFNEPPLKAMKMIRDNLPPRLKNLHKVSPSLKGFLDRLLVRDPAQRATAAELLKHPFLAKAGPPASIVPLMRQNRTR

| SMILES | competition with UDP-GlcNAc by LO-NMR (2-epimerase) | binding by competitive LO-NMR (PAK4) |
| --- | --- | --- |
| O=S(=O)(CCCn1cc(CCNS(=O)(=O)c2ccc(Br)cc2Cl)nn1)Nc1ccc(Nc2ccc(C(F)(F)F)nn2)cc1 [compound 4] | competitive with UDP-GlcNAc | – |
| CNC(=O)c1cnn2ccc(C#N)cc12 [compound 5] | – | consistent with binding to the ATP-binding site |
